Patent publication US9725457B2, “6-amido derivatives of 4, 5-a epoxymorphinans for the treatment of pain” (Sloan-Kettering Institute for Cancer Research, priority 2010, dated 2017)

Tests used:
[1] = molecular target: T1, MOR (mu opioid receptor), MOR1-CHO (Mus musculus, UniProt P42866); assay: Competition binding in MOR-CHO, 125I-SMGP1 radioligand
T1 construct: expressed in transfected cells; host or cells: CHO
Description: (§1) Receptor-Binding Assays: Competition-binding assays in MOR-CHO (mu), DOR-CHO (delta) and KOR-CHO (kappa) were performed at 25° C. in 50 mM potassium phosphate buffer, pH 7.4, containing 5 mM magnesium sulfate (only in the case of CHO-MOR). Specific binding was defined as the difference between total binding and nonspecific binding, determined in the presence of 8 μM levallorphan. 125I-SMGP1 (IBNtxA) was used as the universal radioligand to determine the relative affinity of drugs in MOR1-CHO, KOR1-CHO and DOR1-CHO. Protein concentrations were generally 20-40 μg/mL, incubation times were 90 minutes for all assays. (Majumdar et al., Bioorg Med Chem Lett. 2011, 21(13), 4001-4004). Kappa3 opioid receptor competition binding assays were carried out in whole brain membrane homogenates, performed at 25° C. in 50 mM potassium phosphate buffer, pH 7.4, containing 5 mM magnesium sulfate for 90 minutes in presence of 100 nM CTAP, 100 nM U50488h and 100 nM DPDPE. ^125I-SMGP1 was used as the radioligand in the assays, typically 500 micrograms of protein and 0.15 nM of the radioligand was used in a 0.5 mL assay. Specific binding was defined as the difference between total binding and nonspecific binding, determined in the presence of 8 μM levallorphan. Protein concentration was determined as described by Lowry et al. [J Biol Chem 1951, 193, 265-275; (1951)] using bovine serum albumin as the standard. Kd, Bmax, and Ki values were calculated by nonlinear regression analysis (GraphPadPrism). […] The “kappa3 opioid receptor” as referred to herein is the receptor first characterized by Clark et al. [J. Pharmacol. Exp. Ther. 251, 461-468 (1989)].

[2] = molecular target: T2, KOR (kappa opioid receptor), KOR1-CHO (Mus musculus, UniProt P33534); assay: Competition binding in KOR-CHO, 125I-SMGP1 radioligand
T2 construct: expressed in transfected cells; host or cells: CHO
Description: as §1

[3] = molecular target: T3, DOR (delta opioid receptor), DOR1-CHO (Mus musculus, UniProt P32300); assay: Competition binding in DOR-CHO, 125I-SMGP1 radioligand
T3 construct: expressed in transfected cells; host or cells: CHO
Description: Receptor-Binding Assays: Competition-binding assays in MOR-CHO (mu), DOR-CHO (delta) and KOR-CHO (kappa) were performed at 25° C. in 50 mM potassium phosphate buffer, pH 7.4, containing 5 mM magnesium sulfate (only in the case of CHO-MOR). Specific binding was defined as the difference between total binding and nonspecific binding, determined in the presence of 8 μM levallorphan. […] Protein concentrations were generally 20-40 μg/mL, incubation times were 90 minutes for all assays. […] Specific binding was defined as the difference between total binding and nonspecific binding, determined in the presence of 8 μM levallorphan. […] Kd, Bmax, and Ki values were calculated by nonlinear regression analysis (GraphPadPrism).

kappa3 opioid receptor = kappa3 opioid receptor (Mus musculus, UniProt P42866); assay: Kappa3 opioid receptor competition binding in whole brain membrane homogenates
Description: as §1

mice [4] = assay: Radiant heat tail flick analgesia assay; format: in vivo
Description: Tail Flick Analgesia Assays: Male CD-i mice (25-35 g; Charles River Breeding Laboratories, Wilmington, Mass.) were maintained on a 12-hr light/dark cycle with Purina rodent chow and water available ad libitum. Mice were housed in groups of five until testing. Analgesia was determined using the radiant heat tail-flick technique [D'Amour and Smith, J. Pharmacol. Exp. Ther. 72: 74-79 (1941)]. For the tail-flick assay, the latency to withdraw the tail from a focused light stimulus was measured electronically using a photocell. […] Post-treatment tail-flick latencies were determined as indicated for each experiment, and a maximal latency of 10 sec for tail-flick was used to minimize tissue damage. All experiments were replicated at least twice with each group in each experiment containing at least 10 mice and the combined results of all replications presented.

mice [5] = assay: Respiratory depression assessment (MouseOx pulse oximeter); settings: 2.5 mg/kg subcutaneously (five times the ED50), CD1 mice
Description: Respiratory Depression assessment: The MouseOx Pulse Oximeter system (Starr Life Sciences, Pittsburgh, Pa.) was used to assess respiratory rate in awake, freely-moving, adult male CD1 mice. For 30 minutes, each animal was habituated to the device using a blank collar, after which the oximeter collar was placed on the animal. A five-second average breath rate was assessed at 5 minute intervals. A baseline for each animal was obtained over a 25 minute period prior to drug injection; beginning 15 minutes post-injection, measurements were then taken for a period of 35 minutes.

mice [6] = assay: Gastrointestinal motility (charcoal meal transit) assay; format: in vivo
Description: Gastrointestinal motility assay: Gastrointestinal transit was determined as described by Paul and Pasternak [Eur. J. Pharmacol. 149 (1988), pp. 403-404.)]. In brief, after withholding food for 8 hours, animals received the indicated drug and then were given a charcoal meal (0.2 mL; 10% of purified charcoal and 2.5% of gum tragacanth, w/v) by gavage and were sacrificed 30 min later. The distance traveled by the charcoal meal was then measured and reported in centimeters.

mice [7] = assay: Tolerance studies and effects of chronic administration (cross tolerance, precipitated withdrawal)
Description: Tail-flick latencies were determined before and 30 minutes after each injection. See Gistrak et al. (1989) op. cit. […] Similarly, a group of mice (n=10) were made tolerant to test compound by twice daily injections to 1 mg/kg, s.c. for 10 days. […] Animals were evaluated for signs of diarrhea and jumping. See Gistrak et al. (1989) op. cit.

Compound: O=C(NC1CCC2(O)C3Cc4ccc(O)c5c4C2(CCN3CC2CC2)C1O5)c1cccc(I)c1 (stereo not drawn) [SMGP 1]
- Ki [1]: 0.11 nM
- Ki [2]: 0.03 nM
- Ki [3]: 0.24 nM
- affinity for the kappa3 site in words (kappa3 opioid receptor): high affinity
- ED50 (mice [4]; Mus musculus, male CD-i mice, radiant heat tail-flick): 0.53 mg/kg
- analgesic potency in mice relative to morphine (mice [4]; mice): potency greater than morphine
- respiratory depression as compared to saline (mice [5]): no statistically significant depression
- effect on the inhibition of gastrointestinal transit (mice [6]): minimal
- physical dependence (withdrawal on challenge with an antagonist after chronic administration) (mice [7]; chronic administration, challenge with antagonist): no physical dependence
- tolerance with chronic administration (mice [7]; chronic administration, mice): some tolerance
- analgesic response in highly morphine tolerant mice (mice [7]; highly morphine tolerant mice): normal analgesic response
- cross tolerance to morphine (mice [7]; mice): no cross tolerance to morphine
